Source: patent US4576940A, “Anti-allergic 3-indolecarboxamides” (Yoshitomi Pharmaceutical Industries, Ltd., priority 1983, dated 1986)
Where a name gives a salt, the structure may show the parent alone. Read-outs that look alike come from different tables or passages of the source. One block for each molecule: values may come before it.

Tests used:
[1] = prior art, in words; cited from earlier work
[2] = prior art, in words; cited from earlier work; remark: listed apart in the source
[3] = prior art, in words; cited from earlier work; remark: listed apart in the source
histamine induced asthma = assay: Inhibitory effect on histamine induced asthma in guinea pigs; type: in vivo, guinea pig (female Hartley); details: Cavia porcellus, po, read-out: Antihistaminic activity (% inhibition)
Description: 2. Inhibitory effect on histamine induced asthma in guinea pigs
The experiment was performed according to the method of Suyama et al. which is described in Jpn. J. Allergol. 15, 549-556, 1966. Female Hartley guinea pigs weighing 300-400 g were used in groups of 5 or more. One hour after the oral administration of test compound solution, animals were placed in a transparent square box and exposed to a 0.2% histamine hydrochloride (Nakarai Chemicals, Ltd.) saline aerosol using an ultrasonic nebulizer (Nihon Kohden, TUR-3000). Protection was assessed during the exposure period (5 minutes) by the presence or absence of loss of righting due to dyspnea. The effects of test compounds were expressed in terms of percent inhibition.

5-lipoxygenase = molecular target: T1, 5-lipoxygenase (Cavia porcellus, UniProt A0A286X958); assay: 5-lipoxygenase inhibition (arachidonic acid induced chemiluminescence of peripheral leukocytes in guinea pigs); type: cell-based, guinea pig
T1 construct: Guinea pigs were anesthetized with ethyl ether, and the peripheral blood was collected in heparinized syringes; endogenous in cells; host or cells: guinea pig peripheral blood leukocytes (dextran sedimentation, erythrocytes lysed)
T1 sequence (A0A286X958 1-674): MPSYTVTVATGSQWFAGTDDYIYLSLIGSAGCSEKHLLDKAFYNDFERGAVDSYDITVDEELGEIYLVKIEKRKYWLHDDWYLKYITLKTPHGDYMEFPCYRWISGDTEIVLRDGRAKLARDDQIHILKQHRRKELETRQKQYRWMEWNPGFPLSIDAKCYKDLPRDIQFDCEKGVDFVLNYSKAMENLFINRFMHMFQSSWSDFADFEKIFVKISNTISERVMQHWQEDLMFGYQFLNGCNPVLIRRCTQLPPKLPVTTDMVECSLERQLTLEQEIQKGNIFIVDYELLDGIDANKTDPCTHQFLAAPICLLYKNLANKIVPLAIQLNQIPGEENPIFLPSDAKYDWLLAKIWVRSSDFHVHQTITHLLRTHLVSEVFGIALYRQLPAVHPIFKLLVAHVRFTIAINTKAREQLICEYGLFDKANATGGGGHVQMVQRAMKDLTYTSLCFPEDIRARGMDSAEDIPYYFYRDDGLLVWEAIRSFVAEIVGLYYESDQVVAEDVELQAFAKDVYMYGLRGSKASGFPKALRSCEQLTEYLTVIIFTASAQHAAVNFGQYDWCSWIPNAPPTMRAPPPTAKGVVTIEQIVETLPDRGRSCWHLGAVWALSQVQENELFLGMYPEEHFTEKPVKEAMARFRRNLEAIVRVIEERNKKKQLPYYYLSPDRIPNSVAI
Description: 1. Inhibitory activity on 5-lipoxygenase (Effect of test compounds on arachidonic acid induced chemiluminescence of peripheral leukocytes in guinea pigs)
(1) Isolation of leukocytes and preparation of leukocyte suspension
Guinea pigs were anesthetized with ethyl ether, and the peripheral blood was collected in heparinized syringes (10 U/ml, blood) from the abdominal aorta through a needle.
50 ml of a 6% dextran solution (molecular weight 177,000, Nakarai Chemicals Ltd.) was added to 100 ml of blood. This suspension was gently mixed, and was allowed to sediment for 60 minutes at room temperature. The upper leukocyte-rich suspension was centrifuged at 400×g for 10 minutes at room temperature. Tris-HCl buffer (pH 7.65) containing 5.0 ml of a 0.83% ammonium chloride solution was added to the cell pellet to lyse remaining erythrocytes. This suspension was centrifuged at 150×g for 10 minutes at 4° C. Eagle's MEM (10 ml) containing 10% fetal bovine serum (Flow Laboratories, Inc.) was added to the cell pellet. This suspension was centrifuged under the same conditions. The cell pellet was suspended in an equal volume of phosphate buffered saline (pH 7.4) containing 0.2% glucose and 0.2% bovine serum albumin, and this mixture was centrifuged under the same conditions. The above procedure was performed twice, and the cell pellet was suspended in the above buffer to adjust the leukocyte counts to 5×10^6 cells/ml.
(2) Chemiluminescence assay
Chemiluminescence was measured by the method of Yoshimoto et al. which is described in Biochem. Biophys. Res. Commun. 107, 779-784, 1982. Briefly, 0.3 ml of a leukocyte suspension was preincubated with 5 μl of a test compound solution of phosphate-buffered saline as controls, 0.05 ml of 1 mM luminol (Nakarai Chemicals, Ltd.) and 0.05 ml of 100 μM indomethacin (Sumitomo Chemical Co. Ltd.) After preincubation at 26° C. for 2 minutes, 100 μl of 2 mM arachidonic acid (Sigma) was added to the reaction mixture. Chemiluminescence was recorded continuously by an Aminco Chem-Glow model J4-7441S photometer equipped with a Hitachi model 056 recorder, and the peak height of luminol intensity was measured. The effects of test compounds were expressed as IC50 values (μM).

Acute toxicity in rats = details: rat, in vivo, 14 days observation
Description: (§1) 3. Acute toxicity in mice and rats
(§2) The acute toxicity of test compound No. 2 was evaluated in 120 male mice weighing 30-42 g and 120 female mice weighing 23-35 g, and in 56 male rats weighing 150-190 g and 56 female rats weighing 115-150 g by oral and intraperitoneal administration. […] LD50 values were calculated by probit method.

Acute toxicity in mice = details: mouse, in vivo, 14 days observation
Description: as §1, §2

[4] = background, in words; cited from earlier work
[5] = arachidonic acid induced chemiluminescence, guinea pig leukocytes, median inhibition concentration, read-out: 5-lipoxygenase inhibiting activity IC50

Compound: O=C(NC1CCN(CCc2c[nH]c3ccccc23)CC1)c1c[nH]c2ccccc12 [3-[2-(4-[indole-3-carboxamido]-1-piperidyl)ethyl]indole]
hypotensive effect [1]: moderate hypotensive effect
anti-histaminic activity [2]: very weak anti-histaminic activity
anti-inflammatory action [3]: effective anti-inflammatory action

Compound: CN(C)CCOC(c1ccccc1)c1ccccc1 [Comparison B, Diphenhydramine, reference compound]
inhibition in vivo at 5 mg/kg (histamine induced asthma; 1 h): 20%
inhibition in vivo at 25 mg/kg (histamine induced asthma; 1 h): 100%

Compound: CCCCn1c(C)c(C(=O)NC2CCN(CCc3ccccc3)CC2)c2cc(O)ccc21 [Example 2, 1-butyl-5-hydroxy-2-methyl-N-(1-(2-phenylethyl)-4-piperidyl)indole-3-carboxamide]
IC50 (5-lipoxygenase): 450 nM
LD50 at 336 h (Acute toxicity in rats; ip, female rats): 1930 mg/kg
LD50 at 336 h (Acute toxicity in rats; ip, male rats): 1940 mg/kg
LD50 at 336 h (Acute toxicity in rats; po, female rats): > 9000 mg/kg
LD50 at 336 h (Acute toxicity in rats; po, male rats): > 9000 mg/kg
LD50 at 336 h (Acute toxicity in mice; ip, female mice): 1470 mg/kg
LD50 at 336 h (Acute toxicity in mice; ip, male mice): 1430 mg/kg
LD50 at 336 h (Acute toxicity in mice; po, female mice): > 10400 mg/kg
LD50 at 336 h (Acute toxicity in mice; po, male mice): > 12000 mg/kg
inhibition in vivo at 0.5 mg/kg (histamine induced asthma; 1 h): 40%
inhibition in vivo at 2.5 mg/kg (histamine induced asthma; 1 h): 100%

Compound: Cc1c(C(=O)NC2CCN(CCc3ccccc3)CC2)c2cc(O)ccc2n1Cc1ccccc1 [Example 4, 1-benzyl-5-hydroxy-2-methyl-N-(1-(2-phenylethyl)-4-piperidyl)indole-3-carboxamide hydrochloride]
IC50 (5-lipoxygenase): 850 nM
inhibition in vivo at 0.5 mg/kg (histamine induced asthma; 1 h): 60%

Compound: Cc1c(C(=O)NC2CCN(CCc3ccccc3)CC2)c2cc(O)ccc2n1C(C)C [Example 5, 5-hydroxy-1-isopropyl-2-methyl-N-(1-(2-phenylethyl)-4-piperidyl)indole-3-carboxamide hydrochloride]
inhibition in vivo at 0.5 mg/kg (histamine induced asthma; 1 h): 100%

Compound: Cc1c(C(=O)NC2CCN(CCc3ccccc3)CC2)c2cc(O)ccc2n1CC(C)C [Example 6, 5-Hydroxy-1-isobutyl-2-methyl-N-(1-(2-phenylethyl)-4-piperidyl)indole-3-carboxamide hydrochloride]
inhibition in vivo at 0.5 mg/kg (histamine induced asthma; 1 h): 0%
inhibition in vivo at 2.5 mg/kg (histamine induced asthma; 1 h): 60%

Compound: CCCCCCn1c(C)c(C(=O)NC2CCN(CCc3ccccc3)CC2)c2cc(O)ccc21 [Example 10, 1-Hexyl-5-hydroxy-2-methyl-N-(1-(2-phenylethyl)-4-piperidyl)indole-3-carboxamide hydrochloride monohydrate]
inhibition in vivo at 0.5 mg/kg (histamine induced asthma; 1 h): 20%
inhibition in vivo at 2.5 mg/kg (histamine induced asthma; 1 h): 100%

Compound: Cc1c(C(=O)NC2CCN(CCc3ccccc3)CC2)c2cc(O)ccc2n1C1CCCCC1 [Example 12, 1-Cyclohexyl-5-hydroxy-2-methyl-N-(1-(2-phenylethyl)-4-piperidyl)indole-3-carboxamide hydrochloride hemihydrate]
IC50 (5-lipoxygenase): 1700 nM

Compound: Cc1c(C(=O)NC2CCN(CCc3ccccc3)CC2)c2cc(O)ccc2n1CCc1ccccc1 [Example 16, 5-Hydroxy-2-methyl-1-(2-phenylethyl)-N-(1-(2-phenylethyl)-4-piperidyl)indole-3-carboxamide hydrochloride]
IC50 (5-lipoxygenase): 1000 nM
inhibition in vivo at 2.5 mg/kg (histamine induced asthma; 1 h): 100%

IC50 (5-lipoxygenase; [5]): 4200 nM
Compound: Cc1c(C(=O)NC2CCN(CCc3ccccc3)CC2)c2cc(O)ccc2n1-c1ccc(Cl)cc1 [Example 24, 1-(p-Chlorophenyl)-5-hydroxy-2-methyl-N-(1-(2-phenylethyl)-4-piperidyl)indole-3-carboxamide hydrochloride]

IC50 (5-lipoxygenase; [5]): 2500 nM
Compound: Cc1c(C(=O)NC2CCN(CCCc3ccccc3)CC2)c2cc(O)ccc2n1-c1ccccc1 [Example 26, 5-Hydroxy-2-methyl-1-phenyl-N-(1-(3-phenylpropyl)-4-piperidyl)indole-3-carboxamide hydrochloride monohydrate]

IC50 (5-lipoxygenase; [5]): 1400 nM
Compound: Cc1c(C(=O)NC2CCN(CCc3ccccc3)CC2)c2cc(O)ccc2n1-c1ccccc1 [Example 29, 5-Hydroxy-2-methyl-N-(1-(2-phenylethyl)-4-piperidyl)-1-phenylindole-3-carboxamide hydrochloride]
inhibition in vivo at 0.5 mg/kg (histamine induced asthma; 0.5 mg/kg, p.o., 1 hour before histamine aerosol, guinea pigs): 33%

Compound: CCCCn1c(C)c(C(=O)NC2CCN(CCOc3ccccc3)CC2)c2cc(O)ccc21 [Example 31, 1-Butyl-5-hydroxy-2-methyl-N-(1-(2-phenoxyethyl)-4-piperidyl)indole-3-carboxamide]
IC50 (5-lipoxygenase): 260 nM

Compound: CCCCC/C=C\C\C=C/C=C/C=C/[C@@H](SC[C@H](NC(=O)CC[C@H](N)C(=O)O)C(=O)NCC(=O)O)[C@@H](O)CCCC(=O)O [LTC4]
bronchoconstriction activity [4]: strong bronchoconstriction activity

Compound: CCCCC/C=C\C\C=C/C=C/C=C/[C@@H](SC[C@H](N)C(=O)NCC(=O)O)[C@@H](O)CCCC(=O)O [LTD4]
bronchoconstriction activity [4]: strong bronchoconstriction activity

Compound: CCCCC/C=C\C\C=C/C=C/C=C/[C@@H](SC[C@H](N)C(=O)O)[C@@H](O)CCCC(=O)O [LTE4]
bronchoconstriction activity [4]: strong bronchoconstriction activity

Compound: O=C(NC1CCN(CCc2c[nH]c3ccccc23)CC1)c1ccccc1 [indoramin, 3-[2-(4-benzamidopiperid-1-yl)ethyl]indole]
hypotensive effect [1]: possesses hypotensive activity
